Patent US9700565B2, “Method of treating mixed lineage leukemia gene-rearranged acute lymphoblastic leukemias” (Dana-Farber Cancer Institute, Inc., priority 2003, dated 2017)

Experiments:
RS4; 11 = assay: In vivo xenograft model of MLL rearranged ALL with bioluminescent imaging, RS4; 11 cells; conditions: SCID-beige mice injected with RS4; 11 cells (does not over-express FLT3); 150 mg/kg once daily via gavage, 5 days per week
Procedure: (§1) To determine if PKC412 is effective against an in vivo model of MLL rearranged ALL, a xenograft model system in which leukemia burden can be quantitated with in vivo bioluminescent imaging is established. SEMK2-M1 and RS4; 11 (ATCC Number: CRL-1873) cell lines are engineered to express firefly luciferase fused to neomycin phosphotransferase by retroviral transduction. One million leukemia cells are then injected into the tail vein of SCID-beige mice. Within 1 week, the bioluminescent signal is detectable in a location consistent with the femur. Pathologic analysis of similarly xenografted mice confirm that the leukemia cells are initially found in the mouse bone marrow present in the femoral head. The leukemia subsequently progresses to replace the normal bone marrow and involve other organs, thus mimicking the progression of human leukemia. Once the leukemia had engrafted, as can be determined by the presence of a bioluminescent signal, a cohort of mice is treated with either 150 mg/kg PKC412 or vehicle once daily via gavage for 5 days per week. Serial imaging of the two cohorts is then performed to quantitate disease burden. […] Thus, oral administration of PKC412 is effective in vivo against human lymphoblastic leukemia with an MLL rearranged ALL arrangement and activated FLT3.

SEMK2-M1 = assay: In vivo xenograft model of MLL rearranged ALL with bioluminescent imaging, SEMK2-M1 cells; parameters: species or system SCID-beige mice; conditions: 150 mg/kg once daily via gavage, 5 days per week
Procedure: as §1

Question: With `CO[C@@H]1[C@H](N(C)C(=O)c2ccccc2)C[C@H]2O[C@]1(C)n1c3ccccc3c3c4c(c5c6ccccc6n2c5c31)C(=O)NC4` [PKC412, N-benzoyl-staurosporine] as the compound, how does the “anti-tumor effect on leukemia (bioluminescent imaging)” value (RS4; 11) read?
Answer: no effect

Question: What about the “quantification of total leukemic burden (bioluminescent imaging)” value (SEMK2-M1; SCID-beige mice engrafted with SEMK2-M1 cells (over-expresses FLT3), after 2 weeks of therapy) of the same compound?
Answer: anti-tumor efficacy

Question: What about the “tumor burden by pathological analysis at completion of the study” value (SEMK2-M1; SEMK2-M1 injected mice, compared to control mice) of the same compound?
Answer: vast differences in tumor burden
